According to patent US10815200B2, “18F—tagged inhibitors of prostate specific membrane antigen (PSMA) and their use as imaging agents for prostate cancer” (DEUTSCHES KREBSFORSCHUNGSZENTRUM, priority 2015, dated 2020):
Square brackets hold non-standard residues; d marks the D form. Peptide text beside a SMILES is read from it. * marks the point of attachment. X1 = O=C(O)CCC(NC(=O)NC(CCCCN*)C(=O)O)C(=O)O; 2Nal = N[CH](Cc1ccc2ccccc2c1)C(=O)O; Nicotinoyl(6-F) = O=C(c1ccc(F)nc1)*; 4Amb = NCc1ccc(C(=O)O)cc1

Assays:
PSMA = target: T1, PSMA (Homo sapiens, UniProt Q04609); assay: Competitive cell binding assay (binding affinity) on LNCaP cells against 68Ga-labeled [Glu-urea-Lys(Ahx)]2-HBED-CC; conditions: competition with 68Ga-labeled [Glu-urea-Lys(Ahx)]2-HBED-CC, non-radioactive reference compounds
T1 construct: host or cells: LNCaP cells
T1 sequence (Q04609 whole entry): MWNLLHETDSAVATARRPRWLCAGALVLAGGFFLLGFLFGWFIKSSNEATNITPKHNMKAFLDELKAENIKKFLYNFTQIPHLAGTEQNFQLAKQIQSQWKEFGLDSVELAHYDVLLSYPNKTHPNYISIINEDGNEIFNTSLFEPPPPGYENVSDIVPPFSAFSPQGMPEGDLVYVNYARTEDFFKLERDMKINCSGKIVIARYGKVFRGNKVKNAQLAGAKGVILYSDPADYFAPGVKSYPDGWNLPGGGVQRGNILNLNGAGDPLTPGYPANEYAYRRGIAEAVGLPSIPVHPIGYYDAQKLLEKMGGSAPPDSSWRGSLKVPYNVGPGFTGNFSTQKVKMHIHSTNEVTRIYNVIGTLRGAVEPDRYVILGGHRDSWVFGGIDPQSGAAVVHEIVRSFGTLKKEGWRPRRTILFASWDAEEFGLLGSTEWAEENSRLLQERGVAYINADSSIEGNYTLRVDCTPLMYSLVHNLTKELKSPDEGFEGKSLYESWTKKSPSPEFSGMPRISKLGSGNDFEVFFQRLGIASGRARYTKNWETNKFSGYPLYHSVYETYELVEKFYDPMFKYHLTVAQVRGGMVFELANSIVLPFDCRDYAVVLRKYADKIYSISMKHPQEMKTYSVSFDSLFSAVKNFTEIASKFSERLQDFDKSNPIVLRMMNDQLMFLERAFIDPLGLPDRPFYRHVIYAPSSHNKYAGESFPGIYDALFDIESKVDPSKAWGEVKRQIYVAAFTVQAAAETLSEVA
Protocol: For binding studies and in vivo experiments LNCaP cells (metastatic lesion of human prostatic adenocarcinoma, ATCC CRL-1740) were cultured in RPMI medium supplemented with 10% fetal calf serum and Glutamax (PAA, Austria). During cell culture, cells were grown at 37° C. in an incubator with humidified air, equilibrated with 5% CO2. The cells were harvested using trypsin-ethylenediaminetetraacetic acid (trypsin-1.5 EDTA; 0.25% trypsin, 0.02% EDTA, all from PAA, Austria) and washed with PBS.
The competitive cell binding assay and internalization experiments were performed as described previously (Eder et al. Bioconjugate Chem. 2012, 23 (4), 688-697). Briefly, the respective cells (10^5 per well) were incubated with the radioligand (^68Ga-labeled [Glu-urea-Lys(Ahx)]2-HBED-CC (Schafer et al. EJNMMI Research 2012, 2:23 doi:10.1186/2191-219X-2-23))) in the presence of 12 different concentrations of analyte (0-5000 nM, 100 μL/well). After incubation, washing was carried out using a multiscreen vacuum manifold (Millipore, Billerica, Mass.). Cell-bound radioactivity was measured using a gamma counter (Packard Cobra II, GMI, Minnesota, USA). The 50% inhibitory concentration (IC50) was calculated by fitting the data using a nonlinear regression algorithm (GraphPad Software). Experiments were performed three times. Reference is made to Table A below.

LNCaP cells = assay: Specific cell uptake and internalization in LNCaP cells; format: cell-based, human; conditions: for Cell surface / Internalised: 30 nM radiolabeled compound, 45 min, 37° C., specific (PMPA block); for Internalized fraction: (Internalized activity/total activity)*100
Protocol: During cell culture, cells were grown at 37° C. in an incubator with humidified air, equilibrated with 5% CO2. […] To determine the specific cell uptake and internalization, 10^5 cells were seeded in poly-L-lysine coated 24-well cell culture plates 24 h before incubation. After washing, the cells were incubated with 30 nM of the radiolabeled compounds for 45 min at 37° C. […] Cellular uptake was terminated by washing 3 times with 1 mL of ice-cold PBS. […] The cells were washed with 1 mL of ice-cold PBS and lysed using 0.3 N NaOH (0.5 mL). The surface-bound and the internalized fractions were measured in a gamma counter. The cell uptake was calculated as percent of the initially added radioactivity bound to 10^5 cells [% ID/10^5 cells].

Row | SMILES | IC50 (PSMA) | Cell surface (LNCaP cells) | Internalised (LNCaP cells) | Internalized fraction (LNCaP cells)
1 | O=C(O)CCC(NC(=O)NC(CCCCNC(=O)C(Cc1ccc2ccccc2c1)NC(=O)c1ccc(CNC(=O)C(CCC(=O)O)NC(=O)C(CCC(=O)O)NC(=O)c2ccc(F)nc2)cc1)C(=O)O)C(=O)O [PSMA-1024, (Glu)-(Urea)-(Lys)-(2-Nal)-(Bn)-(D-Glu)-(Glu)-FN] | 8 nM |  |  | 
2 | O=C(O)CC[C@@H](NC(=O)N[C@H](CCCCNC(=O)[C@@H](Cc1ccc2ccccc2c1)NC(=O)c1ccc(CNC(=O)[C@@H](CCC(=O)O)NC(=O)c2ccnc(F)c2)cc1)C(=O)O)C(=O)O [PSMA-1015, (Glu)-(Urea)-(Lys)-(2-Nal)-(Bn)-(Glu)-FN] | 4 nM |  |  | 
3 | O=C(O)CC[C@@H](NC(=O)N[C@H](CCCCNC(=O)[C@@H](Cc1ccc2ccccc2c1)NC(=O)c1ccc(CNC(=O)[C@@H](CCC(=O)O)NC(=O)c2ccnc([18F])c2)cc1)C(=O)O)C(=O)O [PSMA-1015, (Glu)-(Urea)-(Lys)-(2-Nal)-(Bn)-(Glu)-FN] |  | 14.3 % ID/10^5 cells | 6.0 % ID/10^5 cells | 30%
4 | O=C(O)CCC(NC(=O)NC(CCCCNC(=O)C(Cc1ccc2ccccc2c1)NC(=O)c1ccc(CNC(=O)C(CCC(=O)O)NC(=O)C(CCC(=O)O)NC(=O)c2ccc(F)nc2)cc1)C(=O)O)C(=O)O (centres unmarked) [PSMA-1007, (Glu)-(Urea)-(Lys)-(2-Nal)-(Bn)-(Glu)-(Glu)-FN] | 5 nM |  |  | 
5 | O=C(O)CC[C@H](NC(=O)N[C@@H](CCCCNC(=O)[C@@H](Cc1ccc2ccccc2c1)NC(=O)CC[C@@H](NC(=O)[C@@H](CCC(=O)O)NC(=O)c1ccnc(F)c1)C(=O)O)C(=O)O)C(=O)O [PSMA-1012, (Glu)-(Urea)-(Lys)-(2-Naphthylalanine)-(γGlu)-(Glu)-FN] | 7 nM |  |  | 
6 | O=C(O)CCC(NC(=O)NC(CCCCNC(=O)C(Cc1ccc2ccccc2c1)NC(=O)CCC(NC(=O)CCC(NC(=O)c1ccc([18F])nc1)C(=O)O)C(=O)O)C(=O)O)C(=O)O (centres unmarked) [PSMA-1022, (Glu)-(Urea)-(Lys)-(2-Nal)-(γGlu)-(γGlu)-FN] |  | 3.5 % ID/10^5 cells | 1.0 % ID/10^5 cells | 22%
7 | O=C(O)CCC(NC(=O)NC(CCCCNC(=O)C(Cc1ccc2ccccc2c1)NC(=O)c1ccc(CNC(=O)C(CCC(=O)O)NC(=O)C(CCC(=O)O)NC(=O)c2ccc(F)nc2)cc1)C(=O)O)C(=O)O [PSMA-1023, (Glu)-(Urea)-(Lys)-(2-Nal)-(Bn)-(D-Glu)-(D-Glu)-FN] | 8 nM |  |  | 
8 | O=C(O)CC[C@@H](NC(=O)N[C@H](CCCCNC(=O)[C@@H](Cc1ccc2ccccc2c1)NC(=O)[C@@H](CCC(=O)O)NC(=O)[C@@H](CCC(=O)O)NC(=O)c1ccnc([18F])c1)C(=O)O)C(=O)O [PSMA-1011, (Glu)-(Urea)-(Lys)-(2-Naphthylalanine)-(Glu)-(Glu)-FN] |  | 4.1 % ID/10^5 cells | 0.7 % ID/10^5 cells | 15%
9 | O=C(O)CC[C@H](NC(=O)N[C@@H](CCCCNC(=O)[C@@H](Cc1ccc2ccccc2c1)NC(=O)CC[C@@H](NC(=O)[C@@H](CCC(=O)O)NC(=O)c1ccnc([18F])c1)C(=O)O)C(=O)O)C(=O)O [PSMA-1012, (Glu)-(Urea)-(Lys)-(2-Naphthylalanine)-(γGlu)-(Glu)-FN] |  | 6.9 % ID/10^5 cells | 2.7 % ID/10^5 cells | 28%
10 | O=C(O)CCC(NC(=O)NC(CCCCNC(=O)C(Cc1ccc2ccccc2c1)NC(=O)c1ccc(CNC(=O)C(CCC(=O)O)NC(=O)C(CCC(=O)O)NC(=O)C(CCC(=O)O)NC(=O)c2ccc(F)nc2)cc1)C(=O)O)C(=O)O (centres unmarked) [PSMA-1018, (Glu)-(Urea)-(Lys)-(2-Nal)-(Bn)-(Glu)-(Glu)-(Glu)-FN] ({Nicotinoyl(6-F)}-EEE[4Amb][2Nal]-X1; configuration not given here) | 14 nM |  |  | 
11 | O=C(O)CCC(NC(=O)NC(CCCCNC(=O)C(Cc1ccc2ccccc2c1)NC(=O)CCC(NC(=O)C(CCC(=O)O)NC(=O)C(CCC(=O)O)NC(=O)c1ccc([18F])nc1)C(=O)O)C(=O)O)C(=O)O (centres unmarked) [PSMA-1020, (Glu)-(Urea)-(Lys)-(2-Nal)-(γGlu)-(Glu)-(Glu)-FN] |  | 6.8 % ID/10^5 cells | 1.5 % ID/10^5 cells | 18%
12 | O=C(O)CCC(NC(=O)NC(CCCCNC(=O)C(Cc1ccc2ccccc2c1)NC(=O)C1CCC(CNC(=O)C(CCC(=O)O)NC(=O)C(CCC(=O)O)NC(=O)c2ccc(F)nc2)CC1)C(=O)O)C(=O)O (centres unmarked) [PSMA-1019, (Glu)-(Urea)-(Lys)-(2-Nal)-(Chx)-(Glu)-(Glu)-FN] | 12 nM |  |  | 
13 | O=C(O)CCC(NC(=O)NC(CCCCNC(=O)C(Cc1ccc2ccccc2c1)NC(=O)CCC(NC(=O)C(CCC(=O)O)NC(=O)C(CCC(=O)O)NC(=O)c1ccc(F)nc1)C(=O)O)C(=O)O)C(=O)O (centres unmarked) [PSMA-1020, (Glu)-(Urea)-(Lys)-(2-Nal)-(γGlu)-(Glu)-(Glu)-FN] | 9 nM |  |  | 
14 | O=C(O)CCC(NC(=O)NC(CCCCNC(=O)C(Cc1ccc2ccccc2c1)NC(=O)c1ccc(CNC(=O)C(CNC(=O)c2ccc([18F])nc2)S(=O)(=O)O)cc1)C(=O)O)C(=O)O (centres unmarked) [PSMA-1026, (Glu)-(Urea)-(Lys)-(2-Nal)-(Bn)-(Sala)-FN] |  | 1.3 % ID/10^5 cells | 1.3 % ID/10^5 cells | 50%
15 | O=C(O)CCC(NC(=O)NC(CCCCNC(=O)C(Cc1ccc2ccccc2c1)NC(=O)c1ccc(CNC(=O)C(CCC(=O)O)NC(=O)C(CCC(=O)O)NC(=O)c2ccc([18F])nc2)cc1)C(=O)O)C(=O)O [PSMA-1023, (Glu)-(Urea)-(Lys)-(2-Nal)-(Bn)-(D-Glu)-(D-Glu)-FN] |  | 6.5 % ID/10^5 cells | 3.2 % ID/10^5 cells | 33%
16 | O=C(O)CCC(NC(=O)NC(CCCCNC(=O)C(Cc1ccc2ccccc2c1)NC(=O)c1ccc(CNC(=O)C(CNC(=O)C(CNC(=O)c2ccc([18F])nc2)S(=O)(=O)O)S(=O)(=O)O)cc1)C(=O)O)C(=O)O (centres unmarked) [PSMA-1027, (Glu)-(Urea)-(Lys)-(2-Nal)-(Bn)-(Sala)-(Sala)-FN] |  | 0.9 % ID/10^5 cells | 1.4 % ID/10^5 cells | 60%
17 | O=C(O)CCC(NC(=O)NC(CCCCNC(=O)C(Cc1ccc2ccccc2c1)NC(=O)c1ccc(CNC(=O)C(CCC(=O)O)NC(=O)C(CCC(=O)O)NC(=O)c2ccc([18F])nc2)cc1)C(=O)O)C(=O)O [PSMA-1024, (Glu)-(Urea)-(Lys)-(2-Nal)-(Bn)-(D-Glu)-(Glu)-FN] |  | 5.3 % ID/10^5 cells | 2.1 % ID/10^5 cells | 28%
18 | O=C(O)CCC(NC(=O)NC(CCCCNC(=O)C(Cc1ccc2ccccc2c1)NC(=O)c1ccc(CNC(=O)C(CCC(=O)O)NC(=O)C(CCC(=O)O)NC(=O)C(CCC(=O)O)NC(=O)c2ccc([18F])nc2)cc1)C(=O)O)C(=O)O (centres unmarked) [PSMA-1018, (Glu)-(Urea)-(Lys)-(2-Nal)-(Bn)-(Glu)-(Glu)-(Glu)-FN] |  | 1.1 % ID/10^5 cells | 0.9 % ID/10^5 cells | 45%
19 | O=C(O)CCC(NC(=O)NC(CCCCNC(=O)C(Cc1ccc2ccccc2c1)NC(=O)C1CCC(CNC(=O)C(CCC(=O)O)NC(=O)C(CCC(=O)O)NC(=O)c2ccc([18F])nc2)CC1)C(=O)O)C(=O)O (centres unmarked) [PSMA-1019, (Glu)-(Urea)-(Lys)-(2-Nal)-(Chx)-(Glu)-(Glu)-FN] |  | 5.5 % ID/10^5 cells | 1.9 % ID/10^5 cells | 26%
